Results published in patent EP0966414B1, “TRIARYLMETHYL FREE RADICALS AS IMAGE ENHANCING AGENTS” (Amersham Health AS, priority 1997, dated 1998).

Assay: ESR spectrum linewidth in aqueous solution
Assay type: physicochemical
Settings: 100 G, singlet
Procedure: For the method according to the invention the preferred radicals are those which have relatively few transitions, e.g. less than 15, preferably less than 10, in their ESR spectra and radicals having narrow linewidth ESR transitions, e.g. up to 500 mG, preferably less than 150 mG, especially less than 60 mG and particularly less than 25mG, are especially preferred. (The linewidths referred to are conveniently the intrinsic linewidths (full width at half maximum in the absorption spectrum) under ambient conditions).

ESR linewidth (2.5 mM aqueous solution) [mg]	ESR linewidth (1.0 mM in H2O) [mg]	Substance
195		Tris (8-carboxymethylthio-2,2,6,6-(2-(1-hydroxyethyl)) benzo[1,2-d:4,5-d']bis(1,3)dithiole-4-yl)methyl sodium salt [Example 9]
	226	Tris(8-carboxyl-2,2,6,6-tetra(hydroxyethyl)-benzo[1,2-d:4,5-d']bis(1,3)dithiole-4-yl)methyl N,N-bis(1,2-dihydroxyprop-3-yl)-acetamid-2-yl-ester [Example 23]
	160	Tris(8-carboxy-2,2,6,6-tetra-(hydroxyethyl)benzo[1,2-d:4,5-d']bis(1,3)dithiole-4-yl)methyl sodium salt [Example 7]
	274	Tris(8-[N,N-bis(2,3-dihydroxypropyl)aminocarbonylmethylthiol-2,2,6,6-tetra-(2-(1-hydroxyethyl))benzo[1,2-d:4,5-d'] bis(1,3)dithiole-4-yl)methyl [Example 11]
	70	Tris (8-carboxyl-2,2,6,6-tetra (2-(1-hydroxy-2.2-d2-ethyl))-benzo[1,2-d:4,5-d']bis(1,3)dithiole -4-yl)methyl sodium salt [Example 21]
